The test system of experiment [1] is liver ACAT. Kind of experiment: ACAT inhibitory activity (rabbit liver microsome, cholesteryl oleate production). The class given is biochemical, Japanese white rabbits. The following applies: 37° C. for 20 min. Here is the method:
Male Japanese white rabbits (body weight 2-2.5 kg) were bred on 100 g of a high cholesterol feed (feed added with cholesterol 1%, CLEA Japan, Inc.) daily for 4 weeks and sacrificed by exsanguination under anesthesia. The liver was removed, homogenated and centrifuged at 10,000 rpm and 4° C. for 15 min. The obtained supernatant was further centrifuged at 41,000 rpm and 4° C. for 60 min to give a microsome fraction. To a 0.15 M phosphate buffer were added the microsome suspension as an enzyme specimen, dimethyl sulfoxide (DMSO) or a solution (3 μL) of a test compound in DMSO and [1-14C]-oleoyl-CoA to be a reaction substrate to the total amount of 300 μL. After incubation at 37° C. for 20 min, a mixed solution of chloroform-methanol was added to quench the reaction. Water was added thereto and mixed, and the chloroform layer was separated. The solvent was evaporated to dryness and the residue was redissolved in n-hexane. The resulting solution was subjected to thin layer chromatography using a silica gel plate. The spot of cholesteryl oleate on the silica gel plate was scraped and quantified on a liquid scintillation counter. The ACAT inhibitory activity of the test compound is shown in cholesteryl oleate production inhibitory rate (%) [level of inhibition of cholesteryl oleate production as compared to the control].
(In general: Liver microsomes are a subcellular fraction often used to study metabolism.)

The test system of experiment [2] is THP-1 cell-derived macrophage. The experiment in a line: Cholesterol ester accumulation-inhibitory activity (THP-1 cell-derived macrophage foam cell formation). The class given is cell-based. The following applies: THP-1 macrophage, acetyl LDL, 3 days. How it is done:
THP-1 cells (DAINIPPON PHARMACEUTICAL CO., LTD.) were subcultured in RPMI-1640 medium containing 10% fetal calf serum (FBS), and cells at 6-13th passage after purchase were used. The cells were suspended in FBS-containing RPMI-1640 medium to give a suspension having a concentration of 4×10^5 cells/mL. The cell suspension was seeded on 12-well microplate by 1 mL, and treated with phorbol 12-myristate 13-acetate (PMA, 200 nM) as a differentiation inducer into macrophage. Then, acetyl LDL (400 μg/mL) separately prepared from LDL derived from plasma of a rabbit with genetic hyperlipidemia (KHC rabbit, Japan Laboratory Animals Inc.) was added. A test compound further dissolved in dimethyl sulfoxide (DMSO) and diluted with FBS-containing RPMI-1640 medium and a control solvent were applied. After cultivation in a carbon dioxide incubator for 3 days, the cells were washed with phosphate-buffered saline (pH 7.0), and the lipid was extracted with hexane-isopropanol (3:2). In addition, the cells were lysed with 1N-NaOH, and the protein content was measured. Free cholesterol and cholesterol ester in the lipid extraction sample were measured according to the method of Kunitomo et al. [Japan. J. Pharmacol., 34, 153-158 (1984)]. Cholesterol esters in the control cells and the cells treated with the test compound were compared, and the cholesterol ester accumulation inhibitory rate of the test compound was calculated.

Take `CCCCCCCC(=O)N1Cc2ccccc2C[C@H]1C(=O)Nc1c(C(C)C)cccc1C(C)C` [Example 3, N-(2,6-diisopropylphenyl)-2-octanoyl-1,2,3,4-tetrahydroisoquinoline-(3S)-carboxamide]: in experiment [1], the “liver ACAT inhibition rate (%) (concentration: 10^−6 M)” value (from here on “liver ACAT inhibition rate (%)”) was 93.3%.

In the case of `CCCCCCCC(=O)N1Cc2ccccc2C[C@H]1C(=O)Nc1c(C)cc(C)cc1C` [Example 9, 2-octanoyl-N-(2,4,6-trimethylphenyl)-1,2,3,4-tetrahydroisoquinoline-(3S)-carboxamide], the “liver ACAT inhibition rate (%)” value in experiment [1] is 88.6%.

For the compound `CCC(C)(C)C(=O)N1Cc2ccccc2C[C@H]1C(=O)Nc1c(C)cc(C)c(NS(C)(=O)=O)c1C` [Example 19, 2-(2,2-dimethylbutyryl)-N-(3-methanesulfonylamino-2,4,6-trimethylphenyl)-1,2,3,4-tetrahydroisoquinoline-(3S)-carboxamide], the “cholesteryl ester accumulation inhibitory rate (%) (concentration: 10^−6 M)” value in experiment [2] is listed as 66.4%.

Turning to `CCCCCCCC(=O)N1Cc2ccccc2C[C@@H]1C(=O)Nc1c(C)cc(C)cc1C` [Example 26, 2-octanoyl-N-(2,4,6-trimethylphenyl)-1,2,3,4-tetrahydroisoquinoline-(3R)-carboxamide], the “liver ACAT inhibition rate (%)” value in experiment [1] came out at 83.8%.

`CCCCCCCC(=O)N1Cc2ccccc2C[C@H]1C(=O)Nc1cc(C)c(O)c(C)c1C` [Example 49, N-(4-hydroxy-2,3,5-trimethylphenyl)-2-octanoyl-1,2,3,4-tetrahydroisoquinoline-(3S)-carboxamide]: in experiment [1], the “liver ACAT inhibition rate (%)” value was determined as 96.8%.

Turning to `CCCC(=O)N1Cc2cc(N(C)C)ccc2C[C@H]1C(=O)Nc1cc(C)c(O)c(C)c1C.Cl` [Example 71, 2-butyryl-7-dimethylamino-N-(4-hydroxy-2,3,5-trimethylphenyl)-1,2,3,4-tetrahydroisoquinoline-(3S)-carboxamide hydrochloride], the “cholesteryl ester accumulation inhibitory rate (%) (concentration: 10^−6 M)” value in experiment [2] amounted to 79.2%.

Take `CCCCCC(=O)N1Cc2cc(N(C)C)ccc2C[C@@H]1C(=O)Nc1cc(C)c(O)c(C)c1C.Cl` [Example 74, 7-dimethylamino-2-hexanoyl-N-(4-hydroxy-2,3,5-trimethylphenyl)-1,2,3,4-tetrahydroisoquinoline-(3R)-carboxamide hydrochloride]: the “cholesteryl ester accumulation inhibitory rate (%) (concentration: 10^−6 M)” value in experiment [2] is reported as 74.7%.

On to `CCC(C)(C)C(=O)N1Cc2cc(N(C)C)ccc2C[C@@H]1C(=O)Nc1cc(C)c(O)c(C)c1C.Cl` [Example 75, 7-dimethylamino-2-(2,2-dimethylbutyryl)-N-(4-hydroxy-2,3,5-trimethylphenyl)-1,2,3,4-tetrahydroisoquinoline-(3R)-carboxamide hydrochloride], for which the “liver ACAT inhibition rate (%)” value in experiment [1] amounted to 88.8%. In addition, the “cholesteryl ester accumulation inhibitory rate (%) (concentration: 10^−6 M)” value in experiment [2] turned out to be 93.4%.

With `CCCCCCCC(=O)N1Cc2cc(N(C)C)ccc2C[C@H]1C(=O)Nc1c(C)cc(C)cc1C` [Example 76, 7-dimethylamino-2-octanoyl-N-(2,4,6-trimethylphenyl)-1,2,3,4-tetrahydroisoquinoline-(3S)-carboxamide], the “liver ACAT inhibition rate (%)” value in experiment [1] was 76.7%.

As to `CCCCCC(=O)N1Cc2cc(N)ccc2C[C@H]1C(=O)Nc1cc(C)c(O)c(C)c1C.Cl` [Example 80, 7-amino-2-hexanoyl-N-(4-hydroxy-2,3,5-trimethylphenyl)-1,2,3,4-tetrahydroisoquinoline-(3S)-carboxamide hydrochloride], the “liver ACAT inhibition rate (%)” value in experiment [1] turned out to be 93.4%. Further, in experiment [2], the “cholesteryl ester accumulation inhibitory rate (%) (concentration: 10^−6 M)” value is recorded as 94.5%.

As for `CCCCCC(=O)N1Cc2cc(N(C)C)ccc2C[C@H]1C(=O)Nc1cc(C)c(O)c(C)c1C.Cl` [Example 83, 7-dimethylamino-2-hexanoyl-N-(4-hydroxy-2,3,5-trimethylphenyl)-1,2,3,4-tetrahydroisoquinoline-(3S)-carboxamide hydrochloride], in experiment [1], the “liver ACAT inhibition rate (%)” value was 97.0%. For the same compound, the “cholesteryl ester accumulation inhibitory rate (%) (concentration: 10^−6 M)” value in experiment [2] is reported as 100.2%.

Regarding `CCC(=O)N1Cc2cc(N3CCCC3)ccc2C[C@H]1C(=O)Nc1cc(C)c(O)c(C)c1C.Cl` [Example 91, N-(4-hydroxy-2,3,5-trimethylphenyl)-2-propionyl-7-(pyrrolidin-1-yl)-1,2,3,4-tetrahydroisoquinoline-(3S)-carboxamide hydrochloride], in experiment [2], the “cholesteryl ester accumulation inhibitory rate (%) (concentration: 10^−6 M)” value turned out to be 71.1%.

As to `Cc1cc(NC(=O)[C@@H]2Cc3ccc(N4CCCC4)cc3CN2C(=O)C(C)C)c(C)c(C)c1O.Cl` [Example 93, N-(4-hydroxy-2,3,5-trimethylphenyl)-2-isobutyryl-7-(pyrrolidin-1-yl)-1,2,3,4-tetrahydroisoquinoline-(3S)-carboxamide hydrochloride], the “cholesteryl ester accumulation inhibitory rate (%) (concentration: 10^−6 M)” value in experiment [2] was determined as 83.4%.

For `CCCCCC(=O)N1Cc2cc(NS(C)(=O)=O)ccc2C[C@H]1C(=O)Nc1cc(C)c(O)c(C)c1C` [Example 95, 2-hexanoyl-N-(4-hydroxy-2,3,5-trimethylphenyl)-7-methanesulfonylamino-1,2,3,4-tetrahydroisoquinoline-(3S)-carboxamide], in experiment [2], the “cholesteryl ester accumulation inhibitory rate (%) (concentration: 10^−6 M)” value was found to be 80.4%.

Consider `CCC(C)(C)C(=O)N1Cc2cc(N)ccc2C[C@H]1C(=O)Nc1cc(C)c(O)c(C)c1C.Cl` [Example 104, 7-amino-2-(2,2-dimethylbutyryl)-N-(4-hydroxy-2,3,5-trimethylphenyl)-1,2,3,4-tetrahydroisoquinoline-(3S)-carboxamide hydrochloride], for which, in experiment [1], the “liver ACAT inhibition rate (%)” value is on record as 80.6%. In addition, the “cholesteryl ester accumulation inhibitory rate (%) (concentration: 10^−6 M)” value in experiment [2] was found to be 77.3%.

In the case of `Cc1cc(NC(=O)[C@@H]2Cc3ccc(NS(C)(=O)=O)cc3CN2C(=O)CC(C)(C)C)c(C)c(C)c1O` [Example 106, 2-(3,3-dimethylbutyryl)-N-(4-hydroxy-2,3,5-trimethylphenyl)-7-methanesulfonylamino-1,2,3,4-tetrahydroisoquinoline-(3S)-carboxamide], in experiment [1], the “liver ACAT inhibition rate (%)” value is reported as 89.6%. For the same compound, in experiment [2], the “cholesteryl ester accumulation inhibitory rate (%) (concentration: 10^−6 M)” value worked out at 76.9%.

Consider `CCCCCC(=O)N1Cc2cc(O)ccc2C[C@H]1C(=O)Nc1c(C(C)C)cc(N)cc1C(C)C.Cl` [Example 114, N-(4-amino-2,6-diisopropylphenyl)-2-hexanoyl-7-hydroxy-1,2,3,4-tetrahydroisoquinoline-(3S)-carboxamide hydrochloride], for which the “liver ACAT inhibition rate (%)” value in experiment [1] was found to be 87.5%.

For `CCCCCC(=O)N1Cc2cc(O)ccc2C[C@H]1C(=O)Nc1cc(C)c(O)c(C)c1C` [Example 116, 2-hexanoyl-7-hydroxy-N-(4-hydroxy-2,3,5-trimethylphenyl)-1,2,3,4-tetrahydroisoquinoline-(3S)-carboxamide], the “liver ACAT inhibition rate (%)” value in experiment [1] is 97.2%.

Regarding `CCCCCC(=O)N1Cc2cc(OCCN3CCCC3)ccc2C[C@H]1C(=O)Nc1cc(C)c(O)c(C)c1C.Cl` [Example 118, 2-hexanoyl-N-(4-hydroxy-2,3,5-trimethylphenyl)-7-[2-(pyrrolidin-1-yl)ethoxy]-1,2,3,4-tetrahydroisoquinoline-(3S)-carboxamide hydrochloride], in experiment [2], the “cholesteryl ester accumulation inhibitory rate (%) (concentration: 10^−6 M)” value was 68.6%.

Turning to `CCCCCC(=O)N1Cc2cc(OCCCO)ccc2C[C@H]1C(=O)Nc1cc(C)c(O)c(C)c1C` [Example 119, 2-hexanoyl-7-(3-hydroxypropoxy)-N-(4-hydroxy-2,3,5-trimethylphenyl)-1,2,3,4-tetrahydroisoquinoline-(3S)-carboxamide], in experiment [2], the “cholesteryl ester accumulation inhibitory rate (%) (concentration: 10^−6 M)” value is reported as 84.5%.

For `CCCCCC(=O)N1Cc2cc(N3CCNCC3)ccc2C[C@H]1C(=O)Nc1cc(C)c(O)c(C)c1C` [Example 121, 2-hexanoyl-N-(4-hydroxy-2,3,5-trimethylphenyl)-7-(piperazin-1-yl)-1,2,3,4-tetrahydroisoquinoline-(3S)-carboxamide], the “cholesteryl ester accumulation inhibitory rate (%) (concentration: 10^−6 M)” value in experiment [2] is recorded as 86.8%.

Source of the values: patent US20100022582A1, “Tetrahydroisoquinoline Compound and Medicinal Use Thereof” (priority 2005, published 2010).
